Experiments:
MXT mouse mammary tumor [1] = assay: Cisplatin-treated MXT mouse mammary tumor model, CCDTHT (Example 10); format: in vivo; settings: every second day from day 7: cisplatin 3-mg/kg i.p., CCDTHT 4.6-mg/kg s.c., highly purified PALP 14-mg/kg s.c.
Excerpt: (§1) The B16 mouse melanoma and MXT mouse mammary tumors were developed in first generation hybrid BDF1 (C57 B1 female×DBA/2 male) adult female mice kept at specified pathogen free (SPF) hygienic level. These models were chosen for these experiments because these mice have the complete immune system, and both tumors grow very rapidly. To develop the tumors, B16 and MXT tumor tissue fragments of about 0.1-cm^3 were surgically implanted subcutaneously into the intrascapular region to develop the tumors. Each tumor fragment contained about 1-1.5×10^6 cells. The animals were kept in macrolon cages on ventilated rack at 22-24° C. (50-60% humidity) with lighting regimen of 12/12 h light/dark. The animals had free access to tap water and were fed with sterilized standard diet (Charles River VRF1, Germany) ad libitum. The animals were taken care of according to the “Guiding Principle for the care and use of Animals” based upon the Helsinki declaration and they were approved by the local ethical committee.
(§2) In case of both tumor models the tumor size was usually in the range of 0.2 to 0.5-g when treatments started 7-11 days after tumor implantation; the mice were selected so that in the same treatment group the difference in tumor size was no greater than 0.1 gram. In some experiments, the test proteins were suspended in physiological saline and injected in 50-μl volume subcutaneously in the vicinity of tumor (within 1-cm of tumor margin). In other experiments, the test proteins were dispersed in Vaselinum cholesteratum and used topically; 150-mg cream was applied on the tumor and the vicinity of tumor area (with about 0.5-cm of the tumor margin). The tumor volume was determined by using calipers; this technique is well known to one having ordinary skill in the art. Tumor volume was calculated according to the generally accepted formula: V=a^2×b×7r/6, where “a” and “b” mean the shortest and longest diameter, respectively, of the measured tumor.
The mouse MXT mammary tumor was developed as described in Example 3. In the first group, animals remained untreated during the whole observation period. In the second group, starting on the 7th day after tumor implantation, mice were administered 3-mg per 1-kg of cisplatin i.p. 9-times every second day. In the third group, starting on the 7th day after tumor implantation, mice were simultaneously administered 3-mg per 1-kg of cisplatin i.p. and 4.6-mg per 1-kg of CCDTHT s.c. In the fourth group, starting on the 7th day after tumor implantation, mice were simultaneously administered 3-mg per 1-kg of cisplatin i.p. as well as 4.6-mg per 1-kg of CCDTHT s.c. and 14-mg per 1-kg of highly purified PALP s.c. Each treatment was performed 9-times on every second day. Each group included 7 animals. The mean values for total weight, tumor weight and body weight (the difference between total and tumor weight) are shown in TABLE 8.

MXT mouse mammary tumor [2] = assay: Cisplatin-treated MXT mouse mammary tumor model, purified PALP, AT, holo-TF, apo-TF (Example 9, Experiment 2); format: in vivo; settings: every second day from day 7 (6-times): cisplatin 3-mg/kg i.p., proteins 12-mg/kg s.c.
Excerpt: as §1, §2
Experiment 2. The commercial PALP used in this model for Exp. 1 was composed of PALP (˜10%), TF (˜12%), AT (˜30%), albumin (˜35%) and the degradation products of TF (˜13%). […] In this experiment, it was determined whether the other two major proteins, i.e. TF and AT, present in the commercial PALP preparation in addition to PALP, also influence cisplatin-induced loss of body weight or not. The mouse MXT mammary tumor was developed as described in Example 3. In the first group, animals remained untreated during the whole observation period. In the second group, starting on the 7th day after tumor implantation, mice were administered 3-mg per 1-kg of cisplatin i.p. 6-times every second day. In the third group, starting on the 7th day after tumor implantation, mice were simultaneously administered 3-mg per 1-kg of cisplatin i.p. and 12-mg per 1-kg of purified PALP s.c. In the fourth group, starting on the 7th day after tumor implantation, mice were simultaneously administered 3-mg per 1-kg of cisplatin i.p. and 12-mg per 1-kg of highly purified AT s.c. In the fifth group, starting on the 7th day after tumor implantation, mice were simultaneously administered 3-mg per 1-kg of cisplatin i.p. and 12-mg per 1-kg of commercial holo-TF (h-TF, T 0665 in the Sigma catalog) s.c. In the sixth group, starting on the 7th day after tumor implantation, mice were simultaneously administered 3-mg per 1-kg of cisplatin i.p. and 12-mg per 1-kg of commercial apo-TF (a-TF, T 2036 in the Sigma catalog) s.c. Holo-TF contained 1,100-1,600 μg iron per gram protein while apo-TF was essentially iron-free. Each treatment with the proteins was also performed 6-times on every second day simultaneously with the cisplatin treatment. Each group included 7 animals. The mean values for total weight, tumor weight and body weight (the difference between total and tumor weight) are shown in gram in TABLE 7.

## N.N.[Cl][Pt][Cl] [Cisplatin, cisplatin]
MXT mouse mammary tumor [1]; day 7 after transplantation
  Body weight (total weight minus tumor weight): 21.95 g
  Total weight: 22.20 g
  Tumor weight: 0.25 g
MXT mouse mammary tumor [1]; day 9 after transplantation
  Body weight (total weight minus tumor weight): 22.45 g
  Total weight: 23.00 g
  Tumor weight: 0.55 g
MXT mouse mammary tumor [1]; day 11 after transplantation
  Body weight (total weight minus tumor weight): 21.75 g
  Total weight: 23.10 g
  Tumor weight: 1.35 g
MXT mouse mammary tumor [1]; day 15 after transplantation
  Body weight (total weight minus tumor weight): 20.25 g
  Total weight: 22.90 g
  Tumor weight: 2.65 g
MXT mouse mammary tumor [1]; day 17 after transplantation
  Body weight (total weight minus tumor weight): 17.85 g
  Total weight: 21.60 g
  Tumor weight: 3.75 g
MXT mouse mammary tumor [1]; day 21 after transplantation
  Body weight (total weight minus tumor weight): 15.95 g
  Total weight: 20.60 g
  Tumor weight: 4.65 g
MXT mouse mammary tumor [2]; day 7 after transplantation
  Body weight (total weight minus tumor weight): 22.25 g
  Total weight: 22.6 g
  Tumor weight: 0.35 g
MXT mouse mammary tumor [2]; day 11 after transplantation
  Body weight (total weight minus tumor weight): 21.25 g
  Total weight: 22.7 g
  Tumor weight: 1.45 g
MXT mouse mammary tumor [2]; day 13 after transplantation
  Body weight (total weight minus tumor weight): 20.05 g
  Total weight: 21.9 g
  Tumor weight: 1.85 g
MXT mouse mammary tumor [2]; day 15 after transplantation
  Body weight (total weight minus tumor weight): 18.1 g
  Total weight: 20.8 g
  Tumor weight: 2.7 g
MXT mouse mammary tumor [2]; day 18 after transplantation
  Body weight (total weight minus tumor weight): 16.8 g
  Total weight: 20.3 g
  Tumor weight: 3.5 g

— patent US20080098491A1, “MOUSE MODELS TO STUDY CACHEXIA” (ZOLTAN LABORATORIES LLC, priority 2006, published 2008)
